# Measurements from US20190255023A1, “COMBINATION THERAPY COMPRISING A THIAZOLE AND A CORTICOSTEROID TO TREAT SKIN CONDITIONS” (priority 2016, published 2019).
# Test system: immortalized keratinocyte cell line HaCaT
# Assay: Resazurin assay, HaCaT cell viability / proliferation
# Assay type: cell-based, human
# Conditions: for suboptimal dose of reduced viability: single agent dose response, HaCaT, 24 hours (FIG. 1)
# Procedure: The spontaneously immortalized, nontumorigenic skin keratinocyte cell line HaCaT was maintained in DMEM supplemented with 5% (v/v) FBS, 0.3 mg/ml glutamine and 0.1 mg/ml gentamicin at 37° C. with 5% CO2 in a humidified atmosphere. Subculture using trypsin-EDTA was performed every 3-4 days with split ratio of 1:3-1:4 to ensure actively proliferating cells.
# Cells were seeded in 96 well plates in fully supplemented medium at a density of 3000 cells per well. […] Next day, the cells were treated with cPLA2α inhibitor Compound B, Compound A, vitamin D analogue Calcipotriol and corticosteroid hormone receptor agonist Betamethasone dipropionate for 24 hours. Resazurin was added next day according to the manufacturer's instruction (RnD Systems, UK) and left to incubate for […] in incubator at 37° C. with 5% CO2 in a humidified atmosphere before fluorescence was read at 544 nm excitation and 590 nm emission wavelength. The cells were observed under the microscope to evaluate possible morphology changes and signs of stress before addition of resazurin. The experiments were performed in series of 8 wells per treatment and repeated 3 times.
SMILES,suboptimal dose of reduced viability,"concentration up to which Hacat keratinocytes show resistance (single agent dose response (FIG. 1c), little effect seen attributed to solvent DMSO)"
CCCCCCCOc1ccc(OCC(=O)c2nc(C(=O)OC)cs2)cc1 [Compound A1],10 µM,–
C[C@H]1C[C@H]2[C@@H]3CCC4=CC(=O)C=C[C@]4(C)[C@@]3(F)[C@@H](O)C[C@]2(C)[C@@]1(O)C(=O)CO [Betamethasone],50 µM,up to 200 μM
